In patent publication US20210130308A1, “MODULATORS OF EUKARYOTIC INITIATION FACTOR 2” (Denali Therapeutics Inc., priority 2018, published 2021):
Where two headings read alike, the source gives them in different places.

Tested on: ATF4 translation (ISR pathway activation)
Test: ATF4 Nano Luciferase reporter integrated stress response (ISR) assay in H4 ATF4-NLuc (clone 17) cells
Type: cell-based, human
From the text: Cellular stress leads to activation of the integrated stress response pathway through one of four eukaryotic initiation factor 2α kinases and halts global translation, while allowing for the translation of select transcripts like ATF4 (activating transcription factor 4) that are important for the response to cellular stress. During normal conditions, small open reading frames (ORFs) in the 5′ UTR of ATF4 occupy the ribosome and prevent translation of the coding sequence of ATF4. During stress conditions however, the ribosome scans past these upstream ORFs and preferentially begins translation at the coding sequence of ATF4. In this way, the translation, and thus protein level of ATF4 is a readout of ISR pathway activation. Thus, a fusion of the uORFs and the beginning of the coding sequence of ATF to a common cellular reporter like nano-luciferase allows for a sensitive and high-throughput readout of ISR pathway activity.
Compounds as provided herein were tested in the following assay. The ATF4 Nano Luciferase reporter was constructed by fusing the human full length 5′ untranslated region (5′-UTR) and a small portion of the coding sequence of the ATF4 gene upstream of the Nano Luciferase (NLuc) coding sequence lacking it's start codon. Specifically, nucleotides +1 through +364 (relative to the transcriptional start site) of ATF4 transcript variant 2 (NCBI NM_182810.2) flanked 5′ by EcoRI and 3′ by BamHI restriction enzyme sites were synthesized and cloned into the EcoRI/BamHI cloning sites of pLVX-EF1a-IRES-Puro lentivirus vector (Clontech). […]. H4 cells were selected with […] Puromycin, and clonal cell lines generated by limiting dilution. We utilized this cell line to generate an integrated stress response (ISR) assay to evaluate the activity of ISR pathway inhibitors via luminescence readout. The H4 ATF4-NLuc (clone 17) cell line is plated at a density of […] in 96-well or 384-well respectively in DMEM+10% fetal bovine serum. 24-hours later test compounds diluted in dimethyl sulfoxide (DMSO) are added for 30 minutes at 37 degree Celsius, followed by ISR pathway activation with 50 um sodium arsenite aqueous solution for 6 additional hours. Nano Glo luciferase reagent (N1150, Promega) is added according to manufacturer instructions and the luminescence signal (corresponding to the level of ATF4 translation and thus ISR pathway activation) is read with a standard plate reader with luminescence detection capabilities.
In the table below, activity of the tested compounds is provided in Table 3 as follows: +++=IC50<1 μM; ++=IC50 1-10 μM; +=IC50>10 μM.

[1] = Homo sapiens, 0.5 h, H4 ATF4-NLuc (clone 17) cells, compounds 30 minutes at 37 degree Celsius, then 50 um sodium arsenite for 6 additional hours, luminescence readout, read-out: IC50
[2] = H4 ATF4-NLuc (clone 17) cells, compounds 30 minutes at 37 degree Celsius, then 50 um sodium arsenite for 6 additional hours, luminescence readout, read-out: IC50

Compound | IC50 [1] [nM] | further results
CCOC1CC(OCC(=O)NC23CC(NC(=O)c4ccc5cc(C(F)(F)F)ccc5n4)(C2)C3)C1 (stereo not drawn) [Example 71, N-(3-(2-(3-cis-ethoxycyclobutoxy)acetamido)bicyclo[1.1.1]pentan-1-yl)-6-(trifluoromethyl)quinoline-2-carboxamide] | < 1000 | –
O=C(COc1ccc(Cl)c(F)c1)NC12CC(NC(=O)CO[C@H]3C[C@@H](OC(F)(F)F)C3)(C1)C2 [Example 37, 2-(4-chloro-3-fluoro-phenoxy)-N-[3-[[2-[3-cis-(trifluoromethoxy)cyclobutoxy]acetyl]amino]-1-bicyclo[1.1.1]pentanyl]acetamide] | < 1000 | –
O=C(COc1ccc(Cl)c(F)c1)NCC1CCN(C(=O)COC2CC(OC(F)(F)F)C2)C1 (stereo not drawn) [Example 60, 2-(4-chloro-3-fluorophenoxy)-N-((1-(2-(3-cis-(trifluoromethoxy)cyclobutoxy)acetyl)pyrrolidin-3-yl)methyl)acetamide] | < 1000 | –
O=C(COc1ccc(Cl)cc1)NC12CC(NC(=O)COC3CCC3)(C1)C2 [Example 1, 2-(4-chlorophenoxy)-N-(3-(2-cyclobutoxyacetamido)bicyclo[1.1.1]pentan-1-yl)acetamide] | – | IC50 (Homo sapiens, 0.5 h): < 1000 nM
O=C(COc1ccc(Cl)c(F)c1)NC1CCN(CCOC2CC(OC(F)(F)F)C2)C(=O)C1 (stereo not drawn) [Example 56, 2-(4-chloro-3-fluorophenoxy)-N-(2-oxo-1-(2-(3-cis-(trifluoromethoxy)cyclobutoxy)ethyl)piperidin-4-yl)acetamide] | < 1000 | –
O=C(COC1CC(CC(F)(F)F)C1)NC12CC(NC(=O)c3ccc4cc(C(F)(F)F)ccc4n3)(C1)C2 (stereo not shown) [Example 75] | < 1000 | –
CO[C@@H]1CN(CCOC2CC(OC(F)(F)F)C2)CCC1NC(=O)COc1ccc(Cl)c(F)c1 (stereo partly drawn) [Example 49, 2-(4-chloro-3-fluoro-phenoxy)-N-[trans-3-methoxy-1-[2-[3-cis-(trifluoromethoxy)cyclobutoxy]ethyl]-4-piperidyl]acetamide] | < 1000 | –
O=C(COC1CC(OC(F)(F)F)C1)NC12CC(NC(=O)[C@@H]3CCc4cc(C(F)(F)F)ccc4O3)(C1)C2 (single isomer, unassigned) [Example 72 (second eluting isomer), N-(3-(2-(3-cis-(trifluoromethoxy)cyclobutoxy)acetamido)bicyclo[1.1.1]pentan-1-yl)-6-(trifluoromethyl)chroman-2-carboxamide] | < 1000 | –
O=C(COc1ccc(Cl)c(F)c1)NC1CN(C(=O)COC2CC(OC(F)(F)F)C2)C1 (stereo not drawn) [Example 24, 2-(4-chloro-3-fluoro-phenoxy)-N-[1-[2-[3-cis-(trifluoromethoxy)cyclobutoxy]acetyl]azetidin-3-yl]acetamide] | 1000 to 10000 | –
N#CC1CC(OCC(=O)NC23CC(NC(=O)COc4ccc(Cl)cc4)(C2)C3)C1 (stereo not drawn) [Example 31, 2-(4-chlorophenoxy)-N-[3-[[2-(3-cis-cyanocyclobutoxy)acetyl]amino]-1-bicyclo[1.1.1]pentanyl]acetamide] | – | IC50 [2]: < 1000 nM
O=C(COc1ccc(Cl)c(F)c1)NC1CC(OCCOC2CC(OC(F)(F)F)C2)C1 (single isomer, unassigned) [42 (isomer 1), 2-(4-chloro-3-fluoro-phenoxy)-N-[3-[2-[3-cis-(trifluoromethoxy)cyclobutoxy]ethoxy]-cis-cyclobutyl]acetamide] | < 1000 | –
CC(C)OC1CC(OCC(=O)NC23CC(NC(=O)c4ccc5cc(C(F)(F)F)ccc5n4)(C2)C3)C1 (stereo not drawn) [Example 70, N-(3-(2-(3-cis-isopropoxycyclobutoxy)acetamido)bicyclo[1.1.1]pentan-1-yl)-6-(trifluoromethyl)quinoline-2-carboxamide] | < 1000 | –
N#CC1CC(OCC(=O)N2CC3(CC(NC(=O)COc4ccc(Cl)c(F)c4)C3)C2)C1 (stereo not shown) [Example 20, 2-(4-chloro-3-fluoro-phenoxy)-N-[2-[2-(3-cyanocyclobutoxy)acetyl]-2-azaspiro[3.3]heptan-6-yl]acetamide] | < 1000 | –
O=C(COc1ccc(Cl)cc1)NC12CC(NC(=O)COC3CC(F)(F)C3)(C1)C2 [Example 2, 2-(4-chlorophenoxy)-N-(3-(2-(3,3-difluorocyclobutoxy)acetamido)bicyclo[1.1.1]pentan-1-yl)acetamide] | < 1000 | –
O=C(COc1ccc(Cl)c(F)c1)N[C@@H]1C[C@@H]2[C@H](C1)[C@H]2c1nnc(C2CC(OC(F)(F)F)C2)o1 (stereo partly drawn) [Example 43, 2-(4-chloro-3-fluoro-phenoxy)-N-[(1R,5S)-6-[5-[3-(trifluoromethoxy)cyclobutyl]-1,3,4-oxadiazol-2-yl]-3-bicyclo[3.1.0]hexanyl]acetamide] | < 1000 | –
O=C(COc1ccc(Cl)c(F)c1)NC1CC2(C1)CN(C(=O)COC1CCC1)C2 [Example 19, 2-(4-chloro-3-fluoro-phenoxy)-N-[2-[2-(cyclobutoxy)acetyl]-2-azaspiro[3.3]heptan-6-yl]acetamide] | < 1000 | –
N#CC1CC(OCC(=O)NC23CC(NC(=O)COc4ccc(Cl)cc4)(C2)C3)C1 (stereo not shown) [Example 6, 2-(4-chlorophenoxy)-N-(3-(2-(3-cyanocyclobutoxy)acetamido)bicyclo[1.1.1]pentan-1-yl)acetamide] | < 1000 | –
O=C(COC1CC(F)C1)NC12CC(NC(=O)c3ccc4cc(C(F)(F)F)ccc4n3)(C1)C2 (stereo not drawn) [Example 54, N-[1-[[2-(3-cis-fluorocyclobutoxy)acetyl]amino]-3-bicyclo[1.1.1]pentanyl]-6-(trifluoromethyl)quinoline-2-carboxamide] | – | IC50 [2]: < 1000 nM
CC1(OCC(=O)NC23CC(NC(=O)COc4ccc(Cl)cc4)(C2)C3)CC(C#N)C1 (stereo not shown) [Example 8, 2-(4-chlorophenoxy)-N-(3-(2-(3-cyano-1-methylcyclobutoxy)acetamido)bicyclo[1.1.1]pentan-1-yl)acetamide] | 1000 to 10000 | –
N#CC1CC(OCC(=O)NC23CC(NC(=O)COc4ccc(Cl)c(F)c4)(C2)C3)C1 (stereo not shown) [Example 7, 2-(4-chloro-3-fluorophenoxy)-N-(3-(2-(3-cyanocyclobutoxy)acetamido)bicyclo[1.1.1]pentan-1-yl)acetamide] | < 1000 | –
O=C(COc1ccc(Cl)c(F)c1)NC1CC2(C1)CN(C(=O)COC1CC(OC(F)(F)F)C1)C2 (stereo not drawn) [Example 21, 2-(4-chloro-3-fluoro-phenoxy)-N-[2-[2-[3-cis-(trifluoromethoxy)cyclobutoxy]acetyl]-2-azaspiro[3.3]heptan-6-yl]acetamide] | < 1000 | –
O=C(COc1ccc(Cl)c(F)c1)NC12CC(NC(=O)COC3CCC3)(C1)C2 [Example 10, 2-(4-chloro-3-fluorophenoxy)-N-(3-(2-cyclobutoxyacetamido)bicyclo[1.1.1]pentan-1-yl)acetamide] | < 1000 | –
O=C(COC1CC(OC(F)(F)F)C1)NC12CC(NC(=O)c3ccc4cc(C(F)(F)F)ccc4n3)(C1)C2 (stereo not drawn) [Example 51, N-[1-[[2-[3-cis-(trifluoromethoxy)cyclobutoxy]acetyl]amino]-3-bicyclo[1.1.1]pentanyl]-6-(trifluoromethyl)quinoline-2-carboxamide] | < 1000 | –
CC1(C#N)CC(OCC(=O)NC23CC(NC(=O)COc4ccc(Cl)c(F)c4)(C2)C3)C1 (stereo not shown) [Example 11, 2-(4-chloro-3-fluorophenoxy)-N-(3-(2-(3-cyano-3-methylcyclobutoxy)acetamido)bicyclo[1.1.1]pentan-1-yl)acetamide] | < 1000 | –
O=C(COC1CC(OC(F)(F)F)C1)NC12CC(NC(=O)c3ccc4cc(Cl)ccc4n3)(C1)C2 (stereo not drawn) [Example 64, 6-chloro-N-[1-[[2-[3-cis-(trifluoromethoxy)cyclobutoxy]acetyl]amino]-3-bicyclo[1.1.1]pentanyl]quinoline-2-carboxamide] | < 1000 | –
N#CC1CC(OCC(=O)N2CCC3(CC2)CC(NC(=O)COc2ccc(Cl)c(F)c2)C3)C1 (stereo not shown) [Example 14, 2-(4-chloro-3-fluoro-phenoxy)-N-[7-[2-(3-cyanocyclobutoxy)acetyl]-7-azaspiro[3.5]nonan-2-yl]acetamide] | < 1000 | –
O=C(COc1ccc(Cl)cc1)N[C@H]1C[C@@H]2CN(C(=O)COC3CC(OC(F)(F)F)C3)C[C@@H]2C1 (stereo partly shown) [Example 59] | – | IC50 (Homo sapiens, 0.5 h): < 1000 nM
O=C(COc1ccc(Cl)cc1)NC12CC(NC(=O)COC3CC4(CCC4)C3)(C1)C2 [Example 4, 2-(4-chlorophenoxy)-N-(3-(2-(spiro[3.3]heptan-2-yloxy)acetamido)bicyclo[1.1.1]pentan-1-yl)acetamide] | < 1000 | –
